One assay has as its system Candida albicans. Nature of the assay: Effect on proliferation of Candida albicans, disk on agar surface (A). The format is cell-based. Here is the method: Stock solutions of the following test compounds were dissolved in physiological saline. However DOV was dissolved in water.
C. albicans isolated from clinical specimens were density grown in SubbaRow's broth at 35 C. A loopful of yeast suspension was evenly spread on the surface of Muller-Hilton agar plates (7cm diameter) with a sterile cotton applicator and incubated for 12 hours. The test compounds were placed on the surface of the sensidisks (Whatmann No. 17 paper, 6mm diameter) in a volume of 5, 10, 20, and 50 μliter of stock solutions and made up a final volume of 50 μliter with saline. The plates then were placed and kept at 37 C for 24 hours (*) and 48 hours (**) when the diameters of the inhibitory rings were recorded. Photographs were also taken of plates.

For assay [1], the system named is implantation of fertilized mouse eggs. Nature of the assay: Preventing pregnancy in mice. The format is in vivo. Here is the method: Six 5 month old female CD-1 mice were injected intraperitoneally with N-1 hydroxy acetonyl maleimide for 12 days (50 microgram/ 20 g mice in saline: max volume 0.6 ml/A/D). Another group of the same mice were injected intraperitoneally with saline for 12 days (0.4ml). this second group of mice served as the control.
Two experienced males were introduced to each group of females and kept together for 8 days during which time the females received their daily injection. Copulation plugs were seen on each female by the 12th day of injection, and signs of pregnancy were seen on the control females on the 15-16th day of the experiment. The females delivered on 20-23 (control) and 24-27th (treated) day respectively (Table 3).
The experiment was repeated with the same females two months later, except that females of the control group were assigned to the test group, while females of the test group were reassigned to the control group. […] The control group delivered 102 pups (T/C =100%).

In assay [2] the test system is blood coagulation (normal plasma). Nature of the assay: Blood coagulation (ii)(b), normal plasma. The format is biochemical, human. Here is the method: (§1) 200 microliter thromboplastin (Ortho) was mixed with 10 microliter ketoaldehyde (KA) stock solution. Then 100 microliter citrated human blood plasma was added and the clot formation time (in seconds) was measured on a Fibrionometer. The effect of the ketoaldehyde on coagulation time was evaluated by comparing the clotting time of the KA treated plasma with the untreated control. The result (d%) was read from a special chart expressing the clotting activity.
(§2) All measurements were run in triplicates. The assay was run at 37 C (waterbath) in special tubes and all solutions were prewarmed.
(ii) The plasminogen and KA were incubated for
varying time before the blood plasma was added.
(b) with normal plasma: clotting time = 11. 7 sec

Another assay has as its system Aspergillus niger. Nature of the assay: Inhibition of proliferation of molds, disk assay. The format is cell-based. The settings on record: 40 hrs. Here is the method: (§3) (1) Stock solutions in 26% 2 popanediol:
(§4) (3) Assay: The microorganisms were grown in Saburand's dextrose agar (Scott) at 35 C for stock cultures. For assay the spores were plated on Mueller-Hilton agar plates (7cm dia). The test compounds were applied to the plates on sensi disks (6 mm dia, Whatmann #17 paper) in volumes of 10, 20, 30, 40 microliter made up to 40 plating volume of microliter with the solvent. The plates were incubated at room temperature and in the dark for 40 hrs. The diameter of the inhibition ring around the sensi disks were measured.

The test system of assay [3] is Penicillum notatum. Nature of the assay: Inhibition of proliferation of molds, disk assay. The settings on record: 40 hrs. The assay is classed as cell-based. Here is the method: as §3, §4
Assay [4] has as its system Penicillum notatum. Nature of the assay: Inhibition of proliferation of molds, disk assay. The format is cell-based. The settings on record: 8 days.
The next assay has as its system C. albicans. Nature of the assay: Inhibition of C. albicans, yeast mixed in agar (B). The assay is classed as cell-based. The note with it: 30 μl test, 24 hrs incubation; mean of twenty assays. Here is the method:
Stock cultured C. albicans is used. The yeast isolated from clinical specimens was stock cultured (subcultured) on semisolid trypsoy agar plates. […] Thus, from the subculture(s), transfers were made every 48 hrs into SRB to keep the experimental strain available for assays. From the 24-48 hrs SRB cultures a loopful of turbid solutions was transferred and spread on either (a) trypsoy agar plates or (b) EBM agar plates which were fortified with horse and calf serum and incubated at 36 C for 24-48 hrs. […] Plate (a) was selected for growth inhibition assay(s) with ketoaldehydes.
One milliliter of SRB culture (24-48 hrs growth) was mixed with 10 ml trypsoy agar, warmed to 38 C and rapidly poured into sterile Petri dishes (7cm), spread evenly and allowed to solidify. The selected test compounds (in 30 μl total volume, as above) were placed in sensidisks (6mm dia, Whatman #17) on the infected agar surface. The plates were incubated for 24 hrs at 37 C. The extent of inhibition, clear zones around the sensi disks, were measured and recorded. In some cases contact photorecords were also made with the plates. (The dark zones on the photos are the inhibition (no growth) areas of C. albicans.
These assays were aimed at finding the variations of inhibition due to (i) the variable amount of yeast in (ii) a three dimensional area of the plates. Each result is the statistical mean of twenty assays on different batches of C. albicans.

The test system of assay [5] is blood coagulation (citrated human blood plasma). Nature of the assay: Blood coagulation (i), ketoaldehyde kept 1-2 seconds before plasma added. The format is biochemical. The note with it: for d % (clotting activity) / coagulation time / clot: 1-2 seconds contact; for d % (clotting activity): control 22; for coagulation time: control 24; for clot: control hard. Here is the method:
as §1, §2
(i) The plasminogen and ketoaldehyde were kept for
1-2 seconds before the blood plasma was added.

For a further assay, the system named is skin graft rejection. Nature of the assay: Combatting rejection mechanism: orthotopic skin transplants between Swiss albino and C3HStCrl mice. The assay is classed as in vivo. Here is the method: The experiments described here were performed on random-bred Swiss albino mice (white, females, average body weight 26±3 g; Charles River CD-1-strain) and inbred C3HStCrl mice (cinnamon gray, females, average body weight […]; Charles River pedigreed breeders from L.C. Strong Foundation) and othotopic skin transplants were made in both ways, that is, white to gray and gray to white.
Standard transplantation technique (Billingham, R.E. and W.K. Silvers in Transplantation of Tissues and Cells, The Wistar Institute Press, Philadelphia, p. 8, (1961)) was utilized: From nembutal anesthetized animals 4-6 "pinch" -grafts (full thickness, 3-4 mm in diameter) of the close clipped and sterilized skin were collected from the thorax and immediately transplanted. The grafts were positioned in the "beds" (in place of the pinch-graft) and were held in position by tulle gras (vaseline-impregnated gauze) and by plaster-of-Paris impregnated bandage around the thorax.
The bandages were removed on the 6-9th day after the transplantation and the future development of the grafts was followed by macroscopical observations.
a. Animals were treated for 10 days with the composition before grafts were exchanged and treatment was discontinued on the day of transplantation.
b. Animals were not treated before the grafts were exchanged but the treatment started on the day of transplantation and continued for 10 days.
c. Animals were treated for 10 days with the drug before the grafts were exchanged and the treatment schedule was continued for 25 days after the transplantation.
+Treatment: daily injection with 3.744 mg/kg methylglyoxalmalcimide in 1.

Setting [6] is: ip, 50 microgram/20 g mice, 12 females.
[7] abbreviates: 10x diluted, incubation time 10 seconds.

The text below walks through data of patent US5147652A, “Autobiotics and their use in eliminating nonself cells in vivo” (priority 1990, dated 1992).

Where only a bound is given, the exact number is not on record here.

For the molecule `CC(=O)C(O)N1C(=O)C=CC1=O` (centres unmarked) [MGMALI], the inhibition diameters came out at 8 mm in the assay on Candida albicans (10 μliter, 24 hours (*)); 18 mm in the assay on Candida albicans (20 μliter, 24 hours (*)); 17 mm with Candida albicans (20 μliter, 48 hours (**)); 22 mm in the assay on Candida albicans (50 μliter, 24 hours (*)); 22 mm in the assay with Candida albicans (50 μliter, 48 hours (**)). The same molecule displayed an I % in assay [1] (ip, 50 microgram/20 g mice) of 89.7%. In [1] (ip, 50 microgram/20 g mice), this molecule gave a T/C % of 10.3%. The “delivered (pups)” value in assay [1] (setting [6]) came to 11. Also, in assay [1] (setting [6]), the females that delivered is 2 female. In [1] (second experiment, groups exchanged, two months later), this molecule showed an inhibition of delivery of 83.3%. Also, the day of delivery in assay [1] (treated females, control 20-23) is 24 to 27 days.
As for `O=CC(=O)CCl` [CMG, chloromethylglyoxal], the clotting time was 13.5 s in assay [2] (setting [7]), 19.4 s in assay [2] (incubation time 15 seconds) and more than 178.0 s in [2] (incubation time 100 seconds). Moreover, the d% in assay [2] (setting [7]) worked out at 37%; in [2] (incubation time 15 seconds) it was 33%. Also, the “diameter of inhibition ring” value in the assay with Aspergillus niger (10 microliter) was determined as 8; in the assay on Aspergillus niger (20 microliter) it was 11; with Aspergillus niger (30 microliter), 17; in the assay with Aspergillus niger (40 microliter) it was 22; in the assay with Penicillum notatum [3] (10 microliter), 8; in the assay on Penicillum notatum [3] (20 microliter) it was 10. In addition, the “diameter of inhibition ring” value in the assay on Penicillum notatum [3] (30 microliter) stood at 12; with Penicillum notatum [3] (40 microliter), 14. The inhibition diameters is recorded as 7 mm with Candida albicans (10 μliter, 24 hours (*)); 21 mm in the assay on Candida albicans (20 μliter, 24 hours (*)); 10 mm in the assay with Candida albicans (20 μliter, 48 hours (**)); 33 mm in the assay on Candida albicans (50 μliter, 24 hours (*)); 31 mm in the assay on Candida albicans (50 μliter, 48 hours (**)); 26.6 mm with C. albicans. Moreover, the “persistence of inhibition rings” value in the assay on Penicillum notatum [4] (highest concentration) is “remained unchanged”. Also, the “spore formation / mycelium development in second ring” value in the assay on Penicillum notatum [4] (penicillin plate) is “spore formation in this area was inhibited while mycelium development was not”. In addition, in assay [5], the “d % (clotting activity)” value was “infinite”. In addition, the coagulation time in assay [5] was more than 200 s. Also, the clot entry in assay [5] is recorded as “no”. The anti-coagulant effectiveness entry in [5] (summary of Example 9) is reported as “most effective anti-coagulants”.
In turn, `CC(=O)CC(=O)C=O` [AcMG, 3-acetylmethylglyoxal] had a clotting time in assay [2] (incubation time 120 seconds) of 13.9 s. In assay [2] (incubation time 120 seconds), this molecule returned a d% of 78%. For the same molecule, the inhibition diameters worked out at 18 mm in the assay with Candida albicans (10 μliter, 24 hours (*)); 11 mm in the assay with Candida albicans (10 μliter, 48 hours (**)); 31 mm with Candida albicans (20 μliter, 24 hours (*)); 24 mm in the assay on Candida albicans (20 μliter, 48 hours (**)); 34 mm in the assay with Candida albicans (50 μliter, 24 hours (*)); 30 mm in the assay on Candida albicans (50 μliter, 48 hours (**)). Moreover, the “inhibition diameters” value in the assay with C. albicans stood at 25.3 mm. Besides, the “d % (clotting activity)” value in assay [5] is reported as 28%. The coagulation time in assay [5] amounted to 21.5 s. Besides, in assay [5], the clot result is reported as “hard”.
As to `C[C@@H]1[C@H](O)[C@@H](C)/C=C/C=C/C=C/C=C/C=C/C=C/C=C/[C@H](O[C@@H]2O[C@H](C)[C@@H](O)[C@H](N)[C@@H]2O)C[C@@H]2O[C@](O)(C[C@@H](O)C[C@@H](O)[C@H](O)CC[C@@H](O)C[C@@H](O)CC(=O)O[C@H]1C)C[C@H](O)[C@H]2C(=O)O` [AMP-B, amphotericin-B, reference compound], the inhibition diameters in the assay with Candida albicans (20 μliter, 24 hours (*)) came out at 2 mm; in the assay on Candida albicans (50 μliter, 24 hours (*)) it was 5 mm.
As to methylglyoxalmalcimide, the rejection with skin graft rejection ((a) pretreatment 10 days, printed g to 2, 31-40 days, cumulative) is 100%; with skin graft rejection ((a) pretreatment 10 days, w to g, 26-30 days, cumulative), 30%; in the assay on skin graft rejection ((b) post graft treatment 10 days, printed g to 2, 31-40 days, cumulative), 10%; in the assay with skin graft rejection ((b) post graft treatment 10 days, w to g, 26-31 days, cumulative) it was 10%; with skin graft rejection ((c) pretreatment 10 days and post graft 25 days, g to w, 31-40 days, cumulative) it was 10%; in the assay on skin graft rejection ((c) pretreatment 10 days and post graft 25 days, w to g, 26-30 days) it was “No rejection”.
Consider `O=C1C=CC(=O)N1` [MALI, maleimide, reference compound], for which the inhibition diameters with Candida albicans (5 μliter, 24 hours (*)) is on record as 13 mm; in the assay on Candida albicans (10 μliter, 24 hours (*)) it was 21 mm; with Candida albicans (10 μliter, 48 hours (**)), 17 mm; in the assay with Candida albicans (20 μliter, 24 hours (*)) it was 29 mm; with Candida albicans (20 μliter, 48 hours (**)) it was 25 mm; in the assay with Candida albicans (50 μliter, 24 hours (*)) it was 30 mm. The inhibition diameters in the assay with Candida albicans (50 μliter, 48 hours (**)) is given as 30 mm.
Consider `CCOC(C)C(=O)C=O` (centres unmarked) [KE, kethoxal, reference compound], for which the inhibition diameters in the assay on Candida albicans (10 μliter, 24 hours (*)) turned out to be 7 mm; with Candida albicans (20 μliter, 24 hours (*)), 17 mm; in the assay with Candida albicans (20 μliter, 48 hours (**)) it was 16 mm; in the assay on Candida albicans (50 μliter, 24 hours (*)), 25 mm; in the assay on Candida albicans (50 μliter, 48 hours (**)) it was 24 mm.
For the molecule `O=CC(=O)Cc1ccccc1` [PMG, 3-Phenylmethylglyoxal], in assay [2] (incubation time 120 seconds), the clotting time was found to be 21.2 s and the d% is 28%. In assay [5], the “d % (clotting activity)” value was determined as 10.5%, the coagulation time came out at 36 s and the clot result is “hard”.
On to `CC(=O)CC(=O)C(=O)O` [DOV, 2,4-dioxovaleric acid, reference compound], for which the “inhibition diameters, in words” value in the assay with Candida albicans (5-50 μliter, 24 hours (*)) is on record as “negligible”.
